Legend:
post-menopausal women = post-menopausal women administered 300 mg progesterone; cited from earlier work
postmenopausal women [1] = test: Polygraphic sleep recordings in randomized, double-blind, placebo-controlled study, prevention of sleep disturbances; type: in vivo, human
Procedure: Eight postmenopausal women, aged 48-74 yr (mean 57.4 yr), were selected after a careful clinical and biological evaluation. Investigations were performed 2-17 years (mean: 8.0 years) after natural menopause (seven subjects) or bilateral ovariectomy (one subject). Mean age at menopause was 49.4 years (range: 41-57 yr). Three subjects had never received hormone replacement therapy, and five subjects had been off such treatment for 2-6 months (mean: 4.4 months) at the time of enrollment. Body weight was in the normal range for all (mean+/-SEM of body mass index 22.1+/-0.8 kg/m2). In all subjects, estradiol plasma levels were <10 ng/liter. FSH plasma levels averaged 90 IU/liter (range: 66-136 IU/liter). The protocol was designed as a randomized, double-blind, placebo-controlled study. Thereafter, all subjects participated in random order in two studies (referred to as placebo and progesterone), separated from each other by at least 1 month. The placebo study preceded the progesterone study in four subjects and followed the progesterone study in the other four volunteers. Each study included an initial 20 day ambulatory period. During this period, the subjects were asked to maintain regular sleep-wake cycles (bedtime 2300-0700 h in darkness) and meal schedules (0800 h, 1230 h, 1900 h). They took daily, at 2300 h, a capsule of either 300 mg of progesterone or placebo. At the end of the ambulatory period, they were admitted at about 1600 h to the sleep laboratory for 44 hours. During hospitalization, subjects were maintained in a seated/upright position in normal indoor light conditions (+/-300 lux), and no naps were allowed during the scheduled wake periods (0700-2300 h). Meals were served at 0800 h, 1230 h, and 1900 h. At 2300 h, they received their usual capsule of either 300 mg of progesterone or placebo. During both scheduled sleep periods (2300-0700 h), subjects were kept recumbent in total darkness and sleep was polygraphically recorded. On the morning after the first night, a sterile heparin-lock catheter was inserted intravenously in the forearm and blood samples were collected for 24 hours at 15-minute intervals. The iv line was kept permeable by a slow drip of heparinized saline. During the sleep period, the indwelling catheter was connected to plastic tubing extending to an adjacent room and blood samples were collected remotely, as previously described (Leproult et al., 2005, Clin. Endocrinol. 63: 298-304). The total amount of blood withdrawn was less than 300 ml for each inpatient study. The subjects were discharged at about 1200 h after the second night. Polygraphic sleep recordings were visually scored at 30 second intervals, using standardized criteria ([…] and Kales, 1968, Los Angeles: UCLA Brain Information Service/Brain Research Institute) by the same experienced scorer who was blind to the clinical condition of the subject. Sleep onset and morning awakening were defined as, respectively, the times of the first and last 30 second intervals scored II, III, IV, or rapid eye movement (REM). The sleep period was defined as the time interval separating sleep onset and final awakening. Total sleep time was defined as the sleep period minus the total duration of wake after sleep onset (WASO). Sleep latency was defined as the time interval from lights off until sleep onset. Sleep efficiency was calculated as the total sleep time, expressed as percentage of the time allocated to sleep. Slow-wave sleep (SWS) was defined as stages III+IV. A spectral analysis was performed on the central electroencephalogram lead (PRANA, PhiTools, Strasbourg, France) (Latta et al., 2005, Sleep 28: 1525-1534). Muscular, ocular, and movement artifacts were eliminated before spectral analysis. Delta activity was calculated as the absolute spectral power in the frequency band 0.5-4 Hz. Mean delta power was calculated per 30-sec epoch. Delta power in non-REM sleep quantifies slow-wave activity (SWA) (i.e., the intensity of SWS). […]

postmenopausal women [2] = test: Hormone levels (GH, IGF-I, TSH, free T4) from 24 hour blood sampling in the placebo-controlled study; type: in vivo, human
Procedure: Each study included an initial 20 day ambulatory period. During this period, the subjects were asked to maintain regular sleep-wake cycles (bedtime 2300-0700 h in darkness) and meal schedules (0800 h, 1230 h, 1900 h). They took daily, at 2300 h, a capsule of either 300 mg of progesterone or placebo.
At the end of the ambulatory period, they were admitted at about 1600 h to the sleep laboratory for 44 hours. During hospitalization, subjects were maintained in a seated/upright position in normal indoor light conditions (+/−300 lux), and no naps were allowed during the scheduled wake periods (0700-2300 h). Meals were served at 0800 h, 1230 h, and 1900 h. At 2300 h, they received their usual capsule of either 300 mg of progesterone or placebo. During both scheduled sleep periods (2300-0700 h), subjects were kept recumbent in total darkness and sleep was polygraphically recorded.
On the morning after the first night, a sterile heparin-lock catheter was inserted intravenously in the forearm and blood samples were collected for 24 hours at 15-minute intervals. The iv line was kept permeable by a slow drip of heparinized saline. During the sleep period, the indwelling catheter was connected to plastic tubing extending to an adjacent room and blood samples were collected remotely, as previously described (Leproult et al., 2005, Clin. Endocrinol. 63: 298-304). The total amount of blood withdrawn was less than 300 ml for each inpatient study. The subjects were discharged at about 1200 h after the second night.
Nonparametric tests (Friedman test, Wilcoxon signed rank test, Spearman rank test) were used for statistical calculations (StatView SE+ software for Macintosh computers, Abacus Concepts Inc., Berkeley, Calif.). Detection of outliers was performed by the Grubbs test (Grubbs, 1969, Technometrics 11:1-21; Grubbs and Beck, 1972, Technometrics 14:847-854). All group values are expressed as the mean+/−SEM.
Levels of growth hormone (GH) and thyroid-stimulating hormone (TSH) also were assessed.

men = men orally administered 300 mg progesterone; cited from earlier work
[3] = night 2 (with catheter), P=0.04

CC(=O)[C@H]1CC[C@H]2[C@@H]3CCC4=CC(=O)CC[C@]4(C)[C@H]3CC[C@]12C [progesterone, pregn-4-ene-3,20-dione]
intermittent time spent awake and REM sleep in the first third of the night (post-menopausal women): decrease of intermittent time spent awake and increase in REM sleep in the first third of the night | total duration of REM, Stage 2 or SWS, absolute power spectra; baseline, placebo and progesterone (post-menopausal women): no significant differences | sleep duration and architecture, placebo versus progesterone treatment (postmenopausal women [1]; night 1 (without catheter), 300 mg daily at 2300 h, after 20 day ambulatory period): no differences | sleep latency, stage I, stage II, REM sleep, and REM latency, progesterone versus placebo (postmenopausal women [1]; night 2 (with catheter)): no differences | sleep efficiency higher under progesterone compared with placebo (postmenopausal women [1]; [3]): 15% | total SWA higher under progesterone compared with placebo (postmenopausal women [1]; [3]): more than 40% | total sleep time higher under progesterone compared with placebo (postmenopausal women [1]; [3]): 20% | mean WASO duration lower under progesterone compared with placebo (postmenopausal women [1]; night 2 (with catheter), P=0.05): more than 50% | SWS duration (postmenopausal women [1]; night 2 (with catheter), all eight subjects, mean+/-SEM): 84 ± 10 min | SWS duration, outlier excluded (postmenopausal women [1]; night 2 (with catheter), outlier excluded from the analysis, mean+/-SEM, P=0.04 vs placebo): 79 ± 10 min | other sleep variables, night 2 compared with night 1 (postmenopausal women [1]; under progesterone 300 mg daily, night 2 with iv catheter): not significantly altered | decrease in stage II, night 2 compared with night 1 (postmenopausal women [1]; under progesterone 300 mg daily, night 2 with iv catheter, P=0.04): about 20% | decrease in total sleep time, night 2 compared with night 1 (postmenopausal women [1]; under progesterone 300 mg daily, night 2 with iv catheter, P=0.05): about 20% | decrease in sleep efficiency, night 2 compared with night 1 (postmenopausal women [1]; under progesterone 300 mg daily, night 2 with iv catheter, P=0.07): about 20% | GH secretion over the scheduled wake period (postmenopausal women [2]; 0700-2300 h, mean+/-SEM, similar under both conditions): 239 ± 91 µg | slope of the linear regression of TSH values over the 2300-0100 period (postmenopausal women [2]; 2300-0100 period, P=0.05): significant negative slope | TSH levels over the 2300-0700 period (postmenopausal women [2]; 2300-0700 period, P=0.05 vs placebo): 0.98+/−0.18 mU/l | GH secretion over the scheduled sleep period (postmenopausal women [2]; 2300-0700 h, mean+/-SEM, P=0.05 vs placebo): 154 ± 44 µg | 24 hour TSH levels (postmenopausal women [2]; 24 hour, P=0.07 vs placebo): 0.91+/−0.13 mU/l | 24 hour free T4 levels (postmenopausal women [2]; 24 hour, P=0.53 vs placebo): 10.3 ± 0.4 ng/L | IGF-I levels (postmenopausal women [2]; measured on 2-3 morning plasma samples, P=0.09 vs placebo): 103 ± 23 µg/L | effect on sleep pattern (men): increase of stage N2 time and decrease of stage N3 time and of REM sleep

Reference: US9504697B2, “Progesterone treatment for improving sleep quality” (BESINS Healthcare Luxembourg SARL, priority 2011, dated 2016)
